Measured values as given in ChEMBL document CHEMBL5137022, “Antitumor Activity of Rutaecarpine in Human Colorectal Cancer Cells by Suppression of Wnt/β-Catenin Signaling” (J Nat Prod, 2022).
pIC50: −log10 of the molar value.

What was measured:
[1] = test system: HCT-15; test: Antiproliferative activity against human HCT-15 cells harboring wild type beta-catenin assessed as reduction in cell viability measured after 72 hrs by SRB assay; assay type: functional, cell-based; conditions: HCT-15, 72 h
[2] = test system: LS174T; test: Antiproliferative activity against human LS174T cells harboring beta-catenin mutant assessed as reduction in cell viability measured after 72 hrs by SRB assay; assay type: functional, cell-based
[3] = test system: HCT-116; test: Antiproliferative activity against human HCT-116 cells harboring beta-catenin mutant assessed as reduction in cell viability measured after 72 hrs by SRB assay; assay type: functional, cell-based; conditions: HCT-116, 72 h
[4] = test system: RKO; test: Antiproliferative activity against human RKO cells harboring wild type beta-catenin assessed as reduction in cell viability measured after 72 hrs by SRB assay; assay type: functional, cell-based
[5] = test system: CCD-841CoN; test: Antiproliferative activity against human CCD-841CoN cells assessed as reduction in cell viability measured after 72 hrs by SRB assay; assay type: functional, cell-based
[6] = test system: SW480; test: Antiproliferative activity against human SW480 cells harboring wild type beta-catenin assessed as reduction in cell viability measured after 72 hrs by SRB assay; assay type: functional, cell-based; conditions: SW480, 72 h
[7] = Toxicity in BALB/c nude mouse xenografted with human LS174T cells assessed as effect on body weight at 10 to 30 mg/kg, ip administered 3 times per week for 21 days; assay type: organism-based; conditions: in vivo, 504 h, dose 10-30 mg/kg, time 21 day
[8] = test system: CCD-18Co; test: Antiproliferative activity against human CCD-18Co cells assessed as reduction in cell viability measured after 72 hrs by SRB assay; assay type: functional, cell-based

pIC50 [1] | pIC50 [3] | pIC50 [6] | Structure (SMILES) | pIC50 [2] | pIC50 [4] | pIC50 [5] | Activity [7] | pIC50 [8]
5.57 | 6.22 | 5.42 | CCc1c2c(nc3ccc(OC(=O)N4CCC(N5CCCCC5)CC4)cc13)-c1cc3c(c(=O)n1C2)COC(=O)[C@]3(O)CC [IRINOTECAN] | 6.15 | 6.15 | 4.88 | Toxic | 4.73
5.74 | 6.30 | 6.10 | COc1cc([C@@H]2c3cc4c(cc3[C@@H](O[C@@H]3O[C@@H]5CO[C@@H](C)O[C@H]5[C@H](O)[C@H]3O)[C@H]3COC(=O)[C@H]23)OCO4)cc(OC)c1O [ETOPOSIDE] | 6.05 | 5.72 | 5.12 | – | 4.69
